Measured values as given in ChEMBL document CHEMBL1201862, “PubChem BioAssay data set” (2004).
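Each compound was tested at five concentrations against cells in 96-well plates for 48 hours. GI50 is the concentration that inhibits growth by half.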 Active and inactive are the calls of the source. Rule as the data show it: active = GI50 up to about 1.1 µM and inactive = higher.

Experiments:
Test in all cases: DTP human tumour cell line panel, 48 h
[1] = test system: HCC 2998
[2] = test system: SK-MEL-28
[3] = test system: M14
[4] = test system: T47D
[5] = test system: HCT-15
[6] = test system: RPMI-8226
[7] = test system: BT-549
[8] = test system: PC-3
[9] = test system: OVCAR-4
[10] = test system: CAKI-1
[11] = test system: MDA-MB-231
[12] = test system: NCI-H226
[13] = test system: NCI/ADR-RES
[14] = test system: OVCAR-8
[15] = test system: U-251
[16] = test system: SF-295
[17] = test system: K562
[18] = test system: 786-0
[19] = test system: SW-620
[20] = test system: CCRF-CEM
[21] = test system: MDA-N
[22] = test system: HOP-92
[23] = test system: A549
[24] = test system: NCI-H23
[25] = test system: OVCAR-3
[26] = test system: EKVX
[27] = test system: COLO 205
[28] = test system: SK-MEL-5
[29] = test system: HOP-62
[30] = test system: HCT-116
[31] = test system: UO-31
[32] = test system: SK-OV-3
[33] = test system: LOX IMVI
[34] = test system: SNB-19
[35] = test system: UACC-62
[36] = test system: A498
[37] = test system: UACC-257
[38] = test system: SF-539
[39] = test system: IGROV-1
[40] = test system: MOLT-4
[41] = test system: DU-145
[42] = test system: ACHN
[43] = test system: MDA-MB-435
[44] = test system: MCF7
[45] = test system: KM12
[46] = test system: HL-60
[47] = test system: SK-MEL-2
[48] = test system: SF-268
[49] = test system: SN12C
[50] = test system: OVCAR-5
[51] = test system: TK-10
[52] = test system: NCI-H522
[53] = test system: HT-29
[54] = test system: SR
[55] = test system: Malme-3M

CC(C)(C)OC(=O)Nc1cc(-c2ccccc2)co1
GI50 [1]: > 100 µM (inactive)
GI50 [2]: > 100 µM (inactive)
GI50 [3]: > 100 µM (inactive)
GI50 [4]: 38.4 µM (inactive)
GI50 [5]: > 100 µM
GI50 [6]: 41.1 µM (inactive)
GI50 [7]: 79.8 µM (inactive)
GI50 [8]: 50.1 µM (inactive)
GI50 [9]: > 100 µM (inactive)
GI50 [10]: > 100 µM (inactive)
GI50 [11]: 68.7 µM (inactive)
GI50 [12]: > 100 µM (inactive)
GI50 [13]: > 100 µM (inactive)
GI50 [14]: > 100 µM (inactive)
GI50 [15]: 54.6 µM (inactive)
GI50 [16]: > 100 µM (inactive)
GI50 [17]: 67 µM (inactive)
GI50 [18]: > 100 µM (inactive)
GI50 [19]: > 100 µM (inactive)
GI50 [20]: 51.8 µM (inactive)
GI50 [21]: 86.3 µM (inactive)
GI50 [22]: 25.8 µM (inactive)
GI50 [23]: 78.2 µM (inactive)
GI50 [24]: > 100 µM (inactive)
GI50 [25]: 94.2 µM (inactive)
GI50 [26]: > 100 µM (inactive)
GI50 [27]: > 100 µM (inactive)
GI50 [28]: 96.8 µM (inactive)
GI50 [29]: > 100 µM (inactive)
GI50 [30]: 83.9 µM (inactive)
GI50 [31]: > 100 µM (inactive)
GI50 [32]: > 100 µM (inactive)
GI50 [33]: > 100 µM (inactive)
GI50 [34]: > 100 µM (inactive)
GI50 [35]: > 100 µM (inactive)
GI50 [36]: > 100 µM (inactive)
GI50 [37]: > 100 µM (inactive)
GI50 [38]: > 100 µM (inactive)
GI50 [39]: 87.5 µM (inactive)
GI50 [40]: 33.8 µM (inactive)
GI50 [41]: > 100 µM (inactive)
GI50 [42]: > 100 µM (inactive)
GI50 [43]: 94 µM (inactive)
GI50 [44]: 83.8 µM (inactive)
GI50 [45]: > 100 µM (inactive)
GI50 [46]: > 100 µM (inactive)
GI50 [47]: 71.1 µM (inactive)
GI50 [48]: 22.7 µM (inactive)
GI50 [49]: 95.9 µM (inactive)
GI50 [50]: > 100 µM (inactive)
GI50 [51]: > 100 µM (inactive)
GI50 [52]: 17.3 µM (inactive)

COc1ccc2c(c1)CC1COc3cc(OC)ccc3C1O2 (stereo unspecified)
GI50 [1]: > 100 µM (inactive)
GI50 [3]: > 100 µM (inactive)
GI50 [4]: > 100 µM (inactive)
GI50 [5]: > 100 µM
GI50 [6]: > 100 µM (inactive)
GI50 [7]: 44.8 µM (inactive)
GI50 [8]: 79.8 µM (inactive)
GI50 [10]: > 100 µM (inactive)
GI50 [11]: > 100 µM (inactive)
GI50 [12]: 23 µM (inactive)
GI50 [13]: 72.6 µM (inactive)
GI50 [14]: 71.8 µM (inactive)
GI50 [15]: 36.6 µM (inactive)
GI50 [16]: 77.3 µM (inactive)
GI50 [18]: 38.1 µM (inactive)
GI50 [19]: > 100 µM (inactive)
GI50 [20]: > 100 µM (inactive)
GI50 [21]: > 100 µM (inactive)
GI50 [22]: > 100 µM (inactive)
GI50 [23]: > 100 µM (inactive)
GI50 [24]: > 100 µM (inactive)
GI50 [25]: > 100 µM (inactive)
GI50 [26]: > 100 µM (inactive)
GI50 [27]: > 100 µM (inactive)
GI50 [28]: 72.3 µM (inactive)
GI50 [53]: 65.3 µM (inactive)
GI50 [29]: > 100 µM (inactive)
GI50 [30]: > 100 µM (inactive)
GI50 [31]: > 100 µM (inactive)
GI50 [32]: > 100 µM (inactive)
GI50 [33]: > 100 µM (inactive)
GI50 [35]: > 100 µM (inactive)
GI50 [36]: > 100 µM (inactive)
GI50 [37]: > 100 µM (inactive)
GI50 [38]: > 100 µM (inactive)
GI50 [39]: > 100 µM (inactive)
GI50 [40]: > 100 µM (inactive)
GI50 [41]: > 100 µM (inactive)
GI50 [43]: > 100 µM (inactive)
GI50 [54]: > 100 µM (inactive)
GI50 [44]: > 100 µM (inactive)
GI50 [45]: > 100 µM (inactive)
GI50 [47]: > 100 µM (inactive)
GI50 [48]: 52.5 µM (inactive)
GI50 [55]: > 100 µM (inactive)
GI50 [49]: > 100 µM (inactive)
GI50 [50]: > 100 µM (inactive)
GI50 [51]: > 100 µM (inactive)
GI50 [52]: 55 µM (inactive)
